Source: patent publication US11484543B2, “Compositions and methods for diagnosing and treating diseases and disorders associated with mutant KCNJ5” (The Rockefeller University, priority 2017, dated 2022)
Where a chain is given by its changes, count along the chain named.

Tests used:
[1] = in vivo; cited from earlier work
KCNJ3/KCNJ5^L168R = target: T1, KCNJ3/KCNJ5^L168R (Homo sapiens, UniProt P48544, L168R); test: Perforated whole-cell patch clamp, KCNJ3/KCNJ5^L168R heterotetramers in HEK293T cells; format: cell-based; conditions: 1 mM BaCl2, after 20 μM roxithromycin
T1 construct: GFP; expressed in transfected cells; host or cells: HEK293T (American Type Culture Collection), transient co-transfection
T1 sequence (P48544 1-419 L168R): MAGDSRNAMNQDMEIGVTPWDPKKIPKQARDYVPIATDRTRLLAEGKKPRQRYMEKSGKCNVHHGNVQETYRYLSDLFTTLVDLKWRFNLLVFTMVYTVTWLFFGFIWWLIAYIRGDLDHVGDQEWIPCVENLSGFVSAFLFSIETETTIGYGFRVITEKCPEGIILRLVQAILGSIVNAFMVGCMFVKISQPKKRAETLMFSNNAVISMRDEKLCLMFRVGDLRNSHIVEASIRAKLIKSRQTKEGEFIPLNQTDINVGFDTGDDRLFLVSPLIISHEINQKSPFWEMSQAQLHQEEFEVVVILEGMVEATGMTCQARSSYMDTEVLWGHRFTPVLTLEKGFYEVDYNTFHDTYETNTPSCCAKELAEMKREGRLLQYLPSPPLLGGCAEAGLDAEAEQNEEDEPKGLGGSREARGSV
T1 sequence (P48549 1-501 partner): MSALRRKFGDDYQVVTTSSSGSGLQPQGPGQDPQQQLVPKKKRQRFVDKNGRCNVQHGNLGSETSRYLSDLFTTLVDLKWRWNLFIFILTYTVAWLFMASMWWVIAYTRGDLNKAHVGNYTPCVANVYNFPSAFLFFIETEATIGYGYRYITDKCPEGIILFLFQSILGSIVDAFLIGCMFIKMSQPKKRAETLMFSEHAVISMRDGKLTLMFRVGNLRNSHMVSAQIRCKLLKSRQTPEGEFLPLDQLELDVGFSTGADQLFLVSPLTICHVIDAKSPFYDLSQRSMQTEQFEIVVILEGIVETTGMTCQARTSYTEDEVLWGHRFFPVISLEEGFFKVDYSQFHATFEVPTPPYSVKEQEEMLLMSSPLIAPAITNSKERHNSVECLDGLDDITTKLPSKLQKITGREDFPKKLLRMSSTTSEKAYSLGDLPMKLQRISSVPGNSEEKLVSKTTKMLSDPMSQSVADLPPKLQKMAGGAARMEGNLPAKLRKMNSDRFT
Procedure: (§1) HEK293T cells (American Type Culture Collection) were used for transient expression of GFP-tagged KCNJ5 or KCNJ3. The cells were grown in Dulbecco's modified Eagle medium (DMEM; Invitrogen) supplemented with 10% FBS (Invitrogen) in 5% CO2 and 95% air at 37° C. Cells were grown to 50-70% confluence for transfection, and the corresponding cDNAs (Choi et al., 2011, Science 331:768-772) were simultaneously applied to the cells using TurboFect transfection reagent according to the manufacturer's protocol (Fermentas). […]
(§2) Within 24 hr after transfection, the cells were treated with trypsin-containing medium (TrypLE Express) (Gibco) for 10 minutes to detach the cells. […] Fluorescence signal (an indication of positive transfection) was detected with an intensified video imaging system including a SIT 68 camera (Long Island Industries). […] After forming a high resistance seal (>2 GΩ), the membrane capacitance was monitored until the whole-cell patch configuration was formed. The cell membrane capacitance was measured and compensated. The K/cation currents were measured from −80 mV to 20 mV with 20 mV steps by an Axon 200A patch-clamp amplifier. The currents were low-pass filtered at 1 KHz and digitized by an Axon interface (Digidata 1200) and were analyzed using the pClamp software system 9 (Axon). […]

KCNJ3/KCNJ5^WT = target: T2, KCNJ3/KCNJ5^WT (Homo sapiens, UniProt P48544); test: Perforated whole-cell patch clamp, KCNJ3/KCNJ5^WT heterotetramers in HEK293T cells; format: cell-based; conditions: 1 mM BaCl2
T2 construct: GFP; expressed in transfected cells; host or cells: HEK293T (American Type Culture Collection), transient co-transfection
T2 sequence (P48544 1-419): T1 sequence (P48544 1-419 L168R) with R168L
T2 sequence (P48549 1-501 partner): T1 sequence (P48549 1-501 partner)
Procedure: as §1, §2

KCNJ5^G151R = target: T3, KCNJ5^G151R (Homo sapiens, UniProt P48544, G151R); test: cell-based; format: cell-based; conditions: 10-point dilution 20 to 0.0391 μM, N=3, four-parameter fit
T3 construct: expressed in transfected cells
T3 sequence (P48544 1-419 G151R): T1 sequence (P48544 1-419 L168R) with G151R, R168L
Method in brief: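 Viability is read as cellular ATP by CellTiter-Glo luminescence 72 h later at 37 °C. Uninduced and induced untreated cells set 100% and 0% effect; curves use a 4-parameter logistic fit.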

KCNJ5^L168R = target: T4, KCNJ5^L168R (Homo sapiens, UniProt P48544, L168R); test: Cell viability assay (ATP, CellTiter-Glo): rescue of KCNJ5^L168R-induced lethality in inducible HEK293 cells; format: cell-based; conditions: 10-point dilution 20 to 0.0391 μM, N=3, four-parameter fit
T4 construct: expressed in transfected cells
T4 sequence (P48544 1-419 L168R): T1 sequence (P48544 1-419 L168R)
Procedure: (§3) WT or mutant human KCNJ5 cDNAs (Choi et al., 2011, Science 331:768-772) were subcloned into the pcDNA5/FRT/TO vector using BamHI and HindIII. Single copies of WT or mutant human KCNJ5 cDNAs expressed under the control of tetracycline-inducible promoter were introduced into HEK293 cells using the Flp-in T-Rex System (Invitrogen) according to the manufacturer's instructions. Cells were grown in selective media containing 10% Tet-system approved FBS (Clontech) until induction.
Assay plates were centrifuged and incubated overnight at 37° C. 20 nL was transferred from the compound source plate to the cell assay plate using an Aquarius (Tecan) with a 384-well pin tool (V&P Scientific). The final concentration of compound for screening was 10 μM and the final DMSO concentration was 0.1%. 1 μL of tetracycline (final concentration 1 μg/mL) was added to compound containing and negative control wells by Multidrop Combi to induce expression. 1 μL of media was added to positive control wells. Assay plates were centrifuged and incubated for 72 hours at 37° C., 5% CO2. CellTiter-Glo (Promega) was used to measure cell viability in the assay wells according to the manufacturer's instructions. 10 μL/well of CellTiter-Glo reagent was added to the assay plates using a MultiDrop Combi. The plates were shaken on a Thermomixer R (Eppendorf) at 1100 rpm for 1 minute and incubated in the dark for 10 minutes at room temperature. Luminescence was read on an Envision plate reader (PerkinElmer) with 0.3 second sampling time per well. Raw data (luminescence counts per second) was normalized to percent effect by the formula 100−(((sample−negative control mean)/(positive control mean−negative control mean))*100).
Data was analyzed using the programs Excel (Microsoft) and Prism (GraphPad). Errors are SD unless otherwise indicated in the legend. Dose-response curves were fitted with a four-parameter logistic equation: F(x)=D+(A−D)/(1+(x/C)^B), with A=minimum inhibition B=Hill's slope C=inflection point D=maximum inhibition Synthesis of Macrolide Derivatives
Cellular ATP levels were measured as a proxy for cell viability, using a commercially available luciferase assay (Crouch et al., 1993, Proc. Natl. Acad. Sci. U.S.A. 109:2533-2538).
Conditions were designed to maximize reproducibility and the signal-to-background ratios (S/B) (Zhang et al., 1999, J. Biomol. Screen 4:67-73) comparing ATP level in uninduced and induced cells. Screening was performed in 384-well plates; compounds were added 24 hours after plating, and channel expression was induced immediately after compound addition. ATP levels were measured 72 hours after induction.

KCNJ5^WT = target: T5, KCNJ5^WT (Homo sapiens, UniProt P48544); test: Membrane potential assay (FLIPR dye) in inducible KCNJ5^WT HEK293 cells; format: cell-based; conditions: 10-point dilution 20 to 0.0391 μM, N=3, four-parameter fit
T5 construct: expressed in transfected cells
T5 sequence (P48544 1-419): T1 sequence (P48544 1-419 L168R) with R168L
Procedure: as §3, with “Single” for “WT or mutant human KCNJ5 cDNAs (Choi et al., 2011, Science 331:768-772) were subcloned into the pcDNA5/FRT/TO vector using BamHI and HindIII. Single”
20 μL of WT cells were plated into sterile black with clear bottom tissue culture-treated 384-well plates (Corning) at a density of 10000 cells/well using a Multidrop Combi. Assay plates were centrifuged at 500 rpm for 10 seconds and incubated overnight at 37° C. in a humidified 5% CO2 incubator. After the overnight incubation, 1 μL of tetracycline (final conc. 1 μg/mL) was added to all wells by Multidrop Combi to induce KCNJ5. Assay plates were centrifuged at 500 rpm for 10 seconds and incubated overnight at 37° C. in a humidified 5% CO2 incubator. The next day, 10 μL of medium was removed from each well using a PlateMate Plus (Thermo Scientific). 10 μL of Blue Formula FLIPR membrane potential dye (Molecular Devices) was added to cells using a Multichannel pipettor. Assay plates were incubated for 30 minutes. at 37° C. After incubation, 20 nL was transferred twice from the compound source plate to the cell assay plate using an Aquarius with a 384-well pin tool for a total transfer volume of 40 nL and a final DMSO concentration of 0.2%. 1 μL of 20 mM BaCl2 was added to positive control wells using a Multichannel pipettor. The assay plate was incubated 20 minutes at room temperature in the dark.
Changes in membrane potential were detected using a well-established fluorescence-based measure of membrane potential (FIG. 4).

Row | Structure (SMILES) | G151R maximum inhibition (KCNJ5^G151R) | G151R minimum inhibition (KCNJ5^G151R) | IC50 (KCNJ5^G151R) | WT IC50 (KCNJ5^WT) | other results
1 | C[C@]12CCC(=O)C=C1CC[C@@H]1[C@@H]2[C@@H](O)C[C@]2(C=O)[C@@H](C(=O)CO)CC[C@@H]12 [aldosterone] | – | – | – | – | plasma half-life [1]: ~30 min
2 | [Ba+2].[Cl-].[Cl-] [barium, BaCl2] | – | – | – | – | block of remaining KCNJ3/KCNJ5^L168R current (KCNJ3/KCNJ5^L168R): blocked; barium sensitivity of KCNJ3/KCNJ5^WT currents (KCNJ3/KCNJ5^WT): sensitive
3 | CC[C@H]1OC(=O)[C@H](C)[C@@H](O[C@H]2C[C@@](C)(O)[C@@H](O)[C@H](C)O2)[C@H](C)[C@@H](O[C@@H]2O[C@H](C)C[C@H](N(C)C)[C@H]2O)[C@](C)(O)C[C@@H](C)C(=O)[C@H](C)[C@@H](O)[C@]1(C)O [Erythromycin C, erythromycin C] | 75.00% | 6.72% | 9.19 µM | No fit | IC50 (KCNJ5^L168R): 12.2 µM; L168R maximum inhibition (KCNJ5^L168R): 18.43%; L168R minimum inhibition (KCNJ5^L168R): 1.41%
4 | CC[C@H]1OC(=O)[C@H](C)[C@@H](O[C@H]2C[C@@](C)(OC)[C@@H](O)[C@H](C)O2)[C@H](C)[C@@H](O[C@@H]2O[C@H](C)C[C@H](N(C)C)[C@H]2O)[C@@]2(C)C[C@@H](C)[C@@]3(O[C@@]1(C)[C@H](O)[C@H]3C)O2 [Anhydroerythromycin A, anhydroerythromycin A] | 60.00% | 5.61% | 8.6 µM | No fit | L168R IC50 (KCNJ5^L168R): No fit
